Each structure is given as a SMILES string.

The target in this assay is T1, human TLR7 (Homo sapiens, UniProt Q9NYK1).
T1 sequence (Q9NYK1 27-1049): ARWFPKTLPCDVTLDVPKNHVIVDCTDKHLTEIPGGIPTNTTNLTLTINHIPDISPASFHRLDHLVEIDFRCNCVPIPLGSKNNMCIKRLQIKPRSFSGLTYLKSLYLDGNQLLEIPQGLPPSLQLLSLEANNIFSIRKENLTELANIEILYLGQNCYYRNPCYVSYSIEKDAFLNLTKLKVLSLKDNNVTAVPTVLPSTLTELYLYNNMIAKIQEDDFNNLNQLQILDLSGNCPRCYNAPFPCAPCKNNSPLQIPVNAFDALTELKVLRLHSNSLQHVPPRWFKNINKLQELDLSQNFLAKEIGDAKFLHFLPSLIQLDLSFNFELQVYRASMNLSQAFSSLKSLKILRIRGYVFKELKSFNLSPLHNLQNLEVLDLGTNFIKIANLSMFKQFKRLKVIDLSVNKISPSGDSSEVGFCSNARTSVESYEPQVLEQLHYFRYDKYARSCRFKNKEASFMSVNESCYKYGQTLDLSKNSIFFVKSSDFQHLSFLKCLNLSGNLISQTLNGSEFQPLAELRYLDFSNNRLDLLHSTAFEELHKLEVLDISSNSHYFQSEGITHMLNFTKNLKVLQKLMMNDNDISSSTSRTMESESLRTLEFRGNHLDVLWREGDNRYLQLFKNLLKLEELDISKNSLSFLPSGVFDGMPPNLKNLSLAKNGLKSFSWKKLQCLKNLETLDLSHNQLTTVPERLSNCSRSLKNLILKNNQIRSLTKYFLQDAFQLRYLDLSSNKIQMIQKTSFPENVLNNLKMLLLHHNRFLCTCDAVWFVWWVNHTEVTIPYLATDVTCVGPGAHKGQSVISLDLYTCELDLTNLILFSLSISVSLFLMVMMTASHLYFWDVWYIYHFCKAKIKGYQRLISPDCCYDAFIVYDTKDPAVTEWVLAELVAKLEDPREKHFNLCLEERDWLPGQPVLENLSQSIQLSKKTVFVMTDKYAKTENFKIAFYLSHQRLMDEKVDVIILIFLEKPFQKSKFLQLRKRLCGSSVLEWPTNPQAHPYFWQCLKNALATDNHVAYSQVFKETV
Kind of assay: HEK293-Blue-hTLR-7 cells assay. Type of assay: cell-based. The following applies: HEK293-Blue-hTLR7 cells, SEAP reporter, R848 stimulation, 20 hrs. From the text:
HEK293-Blue-hTLR-7 Cells Assay:
A stable HEK293-Blue-hTLR-7 cell line was purchased from InvivoGen (Cat. #: hkb-htlr7, San Diego, Calif., USA). These cells were originally designed for studying the stimulation of human TLR7 by monitoring the activation of NF-κB. A SEAP (secreted embryonic alkaline phosphatase) reporter gene was placed under the control of the IFN-β minimal promoter fused to five NF-κB and AP-1-binding sites. The SEAP was induced by activating NF-κB and AP-1 via stimulating HEK-Blue hTLR7 cells with TLR7 ligands. Therefore the reporter expression was declined by TLR7 antagonist under the stimulation of a ligand, such as R848 (Resiquimod), for incubation of 20 hrs. The cell culture supernatant SEAP reporter activity was determined using QUANTI-Blue™ kit (Cat. #: rep-qb1, Invivogen, San Diego, Ca, USA) at a wavelength of 640 nm, a detection medium that turns purple or blue in the presence of alkaline phosphatase.
HEK293-Blue-hTLR7 cells were incubated at a density of 250,000˜450,000 cells/mL in a volume of 170 μL in a 96-well plate in Dulbecco's Modified Eagle's medium (DMEM) containing 4.5 g/L glucose, 50 U/mL penicillin, […], […], 2 mM L-glutamine, 10% (v/v) heat-inactivated fetal bovine serum with addition of 20 sL test compound in a serial dilution in the presence of final DMSO at 1% and 10 μL of 20 uM R848 in above DMEM, perform incubation under 37° C. in a CO2 incubator for 20 hrs. Then 20 μL of the supernatant from each well was incubated with 180 sL Quanti-blue substrate solution at 37° C. for 2 hrs and the absorbance was read at 620-655 nm using a spectrophotometer. The signalling pathway that TLR7 activation leads to downstream NF-κB activation has been widely accepted, and therefore similar reporter assay was modified for evaluating TLR7 antagonist.
As for `C[C@H]1CN(c2ccc(C#N)n3nccc23)C[C@@H]1C(=O)NC1CCN(C)CC1` [Example 44, (3R,4R)-1-(7-cyanopyrazolo[1,5-a]pyridin-4-yl)-4-methyl-N-(1-methyl-4 piperidyl)pyrrolidine-3-carboxamide], the IC50 (in general, the concentration that inhibits the measured activity by half) amounted to 84 nM. In turn, `N#Cc1ccc(N2CC(C(=O)NC3CCCNCC3)C(C(F)(F)F)C2)c2cccnc12` (single isomer, unassigned) [Example 30B, N-(azepan-4-yl)-1-(8-cyano-5-quinolyl)-4-(trifluoromethyl)pyrrolidine-3-carboxamide] returned an IC50 of 50 nM. Compared with the last molecule, the IC50 is about 1.7-fold lower. Then `C[C@@H]1CN(c2ccc(C#N)c3ncccc23)C[C@H]1C(=O)NC1CCN(C)CC1` (relative stereo) [Example 28], with 39 nM; and `C[C@H]1CN(c2ccc(Cl)c3ncccc23)C[C@@H]1C(=O)NC1CCN(C)CC1` [Example 50, (3R,4R)-1-(8-chloro-5-quinolyl)-4-methyl-N-(1-methyl-4-piperidyl)pyrrolidine-3-carboxamide], with 178 nM; and `C[C@H]1CN(c2ccc(C#N)c3nccnc23)C[C@@H]1C(=O)NC1CCN(C)CC1` [Example 3, (3R,4R)-1-(8-cyanoquinoxalin-5-yl)-4-methyl-N-(1-methyl-4-piperidyl)pyrrolidine-3-carboxamide], with 4 nM. Next, `O=C(NC1C2CCC1CNC2)C1CN(c2ccc(C(F)(F)F)c3nccnc23)CC12CC2` (centres unmarked) [Example 12, N-(3-azabicyclo[3.2.1]octan-8-yl)-5-[8-(trifluoromethyl)quinoxalin-5-yl]-5-azaspiro[2.4]heptane-7-carboxamide]: 18 nM. Then `N#Cc1ccc(N2CC(C(=O)NCC3CNCCO3)C3(CC3)C2)c2nccnc12` (centres unmarked) [Example 13, 5-(8-Cyanoquinoxalin-5-yl)-N-(morpholin-2-ylmethyl)-5-azaspiro[2.4]heptane-7-carboxamide], with 18 nM. `N#Cc1ccc(N2C[C@@H](C(F)(F)F)[C@H](C(=O)N[C@H]3CNC[C@H]3F)C2)c2cccnc12` [Example 47, Trans-1-(8-cyano-5-quinolyl)-N-[(3S,4R)-4-fluoropyrrolidin-3-yl]-4-(trifluoromethyl)pyrrolidine-3-carboxamide] came in with an IC50 of 124 nM.

These data come from patent publication US20210323977A1, “PYRROLIDINYL AMIDE COMPOUNDS FOR THE TREATMENT OF AUTOIMMUNE DISEASE” (Hoffmann-La Roche Inc., priority 2018, published 2021).
